Results reported in paper PMC9329436, “Optimization of the 4-anilinoquin(az)oline scaffold as epidermal growth factor receptor (EGFR) inhibitors for chordoma utilizing a toxicology profiling assay platform” (Scientific Reports, 2022).

What was measured:
HL60 cells = test: AsedaSciences SYSTEMETRIC Cell Health Screen (flow cytometry toxicity profiling); conditions: for CC: Cell Cycle score / CM: Cell morphology score / CMI: Cell membrane integrity score / GSH: Glutathione score / MMP: Mitochondrial membrane depolarization score / NMI1: Nuclear membrane integrity 1 score / NMI2: Nuclear membrane integrity 2 score / ROS: Reactive superoxide species score / CHI: Cell Health Index: HL60, 4 h, 5 nM–100 µM; for CC: Cell Cycle score / CM: Cell morphology score / CMI: Cell membrane integrity score / GSH: Glutathione score / MMP: Mitochondrial membrane depolarization score / NMI1: Nuclear membrane integrity 1 score / NMI2: Nuclear membrane integrity 2 score / ROS: Reactive superoxide species score: probability 0–1, n = 2; for CHI: Cell Health Index: probability (0–1) of high-risk class, n = 2; for Cell Health Toxcity Profile CC (DyeCycle Violet) / Cell Health Toxcity Profile CM (Cell morphology) / Cell Health Toxcity Profile CMI (Cell membrane integrity) / Cell Health Toxcity Profile GSH (Glutathione) / Cell Health Toxcity Profile MMP (Mitochondrial membrane depolarization) / Cell Health Toxcity Profile NMI1 (Nuclear membrane integrity 1) / Cell Health Toxcity Profile NMI2 (Nuclear membrane integrity 2) / Cell Health Toxcity Profile ROS (Reactive superoxide species) / Cell Health Toxcity Profile CHI: SYSTEMETRIC Cell Health Screen, assay n=2; for Cell Health Toxcity Profile CHI: classifier output
Excerpt: To prioritize further optimization, in addition to cellular potency, we utilized the AsedaSciences® […]® Cell Health Screen. This live cell flow cytometry (FC) screen was developed to assess human safety risk for candidate pharmaceutical small molecules at the early hit-to-lead stage of development. The screen works by estimating the risk using a supervised machine learning (ML) classifier to assess a multiparametric cellular stress phenotype, produced by the test compound, relative to a training set of known compounds (Table S1). This screen has been designed for early pipeline risk estimation regardless of pharmaceutical class/disease type, so it uses HL60 as the reporter cell line.
The ML classifier was trained with 300 historically known compounds (on market or withdrawn drugs, research compounds, etc.), which were divided into two outcome classes based upon literature, clinical trials, and market histories where applicable. This external curation informed an outcome of “high-risk” or “low-risk”. All 300 compounds were also processed through the automated FC screen, populating each of the two classes with frequency distributions of empirical cell-based phenotypes.
To estimate human safety risk for an unknown compound, the ML classifier assesses the similarity of the test compound’s cell-based phenotype to the distributions of phenotypes in the two outcome classes. […] Phenotypes are derived from twelve FC detection parameters, including light scatter and a series of fluorescent physiological reporter dyes, that track cell stress-related endpoints.
To produce the Cell Health Index, the ML classifier uses all twelve FC parameters simultaneously in a multidimensional logistic regression model, so the CHI contains the most predictive power. In addition to the Cell Health Index, Table 4 also reports probability scores for eight cell stress-related endpoints. These scores are produced individually by passing information to the ML classifier relating to parameters that inform that endpoint. For example, to produce the cell morphology (CM) score, the ML classifier only uses the FC detection parameters for forward scatter (informing change in cell diameter) and side scatter (informing change in optical granularity of the cell) to inform the model. Together, these eight endpoints provide a “biological fingerprint”, allowing assessment of the degree to which SAR series members behave differently across endpoints.
In a 384-well platform, HL60 cells were exposed to a 10-step, 3 × dilution series of each test compound (5 nM–100 µM) for 4 h at 37 °C with 5% CO2. Each dilution series was screened in duplicate, occupying a total of 20 wells, allowing 16 test compounds to be assayed per plate. Each row contained one positive and one negative control well, for a total of 16 replicate positive/negative control pairs on each assay plate. Compound formatting, cell deposition, and dye application were performed robotically so that final assay conditions comprised 100,000 cells in a 40 µL volume. After the 4 h compound exposure, cells were immediately stained with a panel of fluorescent dyes that report physiological signatures of both mitochondrial dysfunction and gross cell stress. Fluorescence and forward/side-scatter data were collected using automated FC with no gating. FC data are processed by an automated algorithm for producing quality control measures and ML classification of compound phenotypes. • 2. HL60 cell culture production
HL60 cells were produced as suspension cultures in glass 850 cm^2 roller bottles with vented caps, at 1 RPM, 5% CO2, and 37 °C. […] Culture density was maintained at or below 1 × 10^6 cells/mL.

U-CH2 chordoma cell line = test: Cell viability assay (alamarBlue, 72 h), U-CH2; assay type: cell-based, human
Experimental: (§1) Chordoma cell lines were cultured as described previously[10],[12],[33],[34]. Briefly, U-CH1 and U-CH2 cell lines were cultured in 4:1 IMDM:RPMI medium supplemented with 10% fetal bovine serum (FBS) and 1% penicillin/streptomycin in gel-coated flasks. […] CH22, UM-Chor1, U-CH12, and U-CH7 cell lines were cultured in RPMI medium supplemented with 10% FBS and 1% penicillin/streptomycin. The cell lines all undergo regular mycoplasma screening.
(§2) Cells were seeded in 384 well plates and were treated with test compound in quadruplicate 24 h after plating. Cell viability was assessed at 72 h using alamarBlue (ThermoFisher, USA). […] IC50 values were determined by four-parameter nonlinear regression analyses using GraphPad Prism™ version 8 software (San Diego, CA).

U-CH1 chordoma cell line = test: Cell viability assay (alamarBlue, 72 h), U-CH1; assay type: cell-based, human
Experimental: as §1, §2

Structure (SMILES) | CC: Cell Cycle score (HL60 cells) | CM: Cell morphology score (HL60 cells) | CMI: Cell membrane integrity score (HL60 cells) | GSH: Glutathione score (HL60 cells) | MMP: Mitochondrial membrane depolarization score (HL60 cells) | NMI1: Nuclear membrane integrity 1 score (HL60 cells) | NMI2: Nuclear membrane integrity 2 score (HL60 cells) | ROS: Reactive superoxide species score (HL60 cells) | CHI: Cell Health Index (HL60 cells) | IC50 (U-CH2 chordoma cell line; n = 4, 72 h) [µM] | IC50 (U-CH1 chordoma cell line; n = 4, 72 h) [µM] | Cell Health Toxcity Profile CC (DyeCycle Violet) (HL60 cells) | Cell Health Toxcity Profile CM (Cell morphology) (HL60 cells) | Cell Health Toxcity Profile CMI (Cell membrane integrity) (HL60 cells) | Cell Health Toxcity Profile GSH (Glutathione) (HL60 cells) | Cell Health Toxcity Profile MMP (Mitochondrial membrane depolarization) (HL60 cells) | Cell Health Toxcity Profile NMI1 (Nuclear membrane integrity 1) (HL60 cells) | Cell Health Toxcity Profile NMI2 (Nuclear membrane integrity 2) (HL60 cells) | Cell Health Toxcity Profile ROS (Reactive superoxide species) (HL60 cells) | Cell Health Toxcity Profile CHI (HL60 cells) | also measured
C#Cc1cccc(Nc2ncnc3ccc(C)cc23)c1 [Compound 4] | 0.65 | 0.0051 | 0.21 | 0.12 | 0.49 | 0.059 | 0.17 | 0.20 | 0.31 | > 100 | 15 | – | – | – | – | – | – | – | – | – | –
C#Cc1cccc(Nc2ncnc3cc(Br)ccc23)c1 [Compound 14] | 0.74 | 0.024 | 0.41 | 0.010 | 0.17 | 0.033 | 0.3 | 0.86 | 0.33 | > 100 | 54 | – | – | – | – | – | – | – | – | – | –
C#Cc1cccc(Nc2ncnc3ccc(Br)cc23)c1 [Compound 8] | 0.087 | 0.0037 | 0.0024 | 0.05 | 0.11 | 0.13 | 0.020 | 0.083 | 0.19 | > 100 | 16 | – | – | – | – | – | – | – | – | – | –
C#Cc1cccc(Nc2c(C#N)cnc3ccccc23)c1 [Compound 24] | – | – | – | – | – | – | – | – | – | > 100 | 34 | 0.76 | 0.99 | 1.00 | 0.98 | 0.97 | 0.85 | 0.81 | 0.98 | 0.70 | –
C#Cc1cccc(Nc2ncnc3ccc(OC)cc23)c1 [Compound 2] | 0.38 | 0.24 | 0.62 | 0.038 | 0.019 | 0.42 | 0.068 | 0.17 | 0.31 | 47 | 1.4 | – | – | – | – | – | – | – | – | – | –
C#Cc1cccc(Nc2c(C#N)cnc3cc(OC)c(OC)cc23)c1 [Compound 22, 4-((3-ethynylphenyl)amino)-6,7-dimethoxyquinoline-3-carbonitrile] | – | – | – | – | – | – | – | – | – | – | – | 0.33 | 0.35 | 0.77 | 0.071 | 0.39 | 0.67 | 0.29 | 0.81 | 0.40 | IC50 (U-CH2 chordoma cell line; Homo sapiens, UCH2, n = 4, 72 h): 36 µM; IC50 (U-CH1 chordoma cell line; Homo sapiens, UCH1, n = 4, 72 h): 4.1 µM
C#Cc1cccc(Nc2ncnc3ccc(F)cc23)c1 [Compound 5] | 0.34 | 0.0041 | 0.091 | 0.087 | 0.26 | 0.082 | 0.11 | 0.34 | 0.26 | > 100 | 19 | – | – | – | – | – | – | – | – | – | –
C#Cc1cccc(Nc2c(C#N)cnc3ccc(Cl)cc23)c1 [Compound 26] | – | – | – | – | – | – | – | – | – | 40 | 14 | 0.93 | 1.00 | 1.00 | 0.99 | 0.99 | 0.98 | 0.97 | 1.00 | 0.83 | –
C#Cc1cccc(Nc2ncnc3ccccc23)c1 [Compound 3] | 0.86 | 0.96 | 0.99 | 0.98 | 1.00 | 0.53 | 0.76 | 0.98 | 0.74 | 52 | 35 | – | – | – | – | – | – | – | – | – | –
C#Cc1cccc(Nc2ncnc3ccc(C(F)(F)F)cc23)c1 [Compound 10] | 0.59 | 0.058 | 0.045 | 0.004 | 0.74 | 0.21 | 0.19 | 0.77 | 0.40 | 42 | 21 | – | – | – | – | – | – | – | – | – | –
C#Cc1cccc(Nc2c(C#N)cnc3cc(Cl)ccc23)c1 [Compound 30] | – | – | – | – | – | – | – | – | – | > 100 | > 100 | 0.17 | 0.31 | 0.25 | 0.065 | 0.080 | 0.69 | 0.041 | 0.44 | 0.35 | –
C#Cc1cccc(Nc2ncnc3cc4c(cc23)OCO4)c1 [Compound 20] | 0.13 | 0.0019 | 0.0038 | 0.087 | 0.016 | 0.72 | 0.0045 | 0.027 | 0.18 | > 100 | 22 | – | – | – | – | – | – | – | – | – | –
C#Cc1cccc(Nc2ncnc3ccc(Cl)cc23)c1 [Compound 7] | 0.10 | 0.0047 | 0.030 | 0.011 | 0.015 | 0.13 | 0.053 | 0.20 | 0.16 | > 100 | 25 | – | – | – | – | – | – | – | – | – | –
C#Cc1cccc(Nc2c(C#N)cnc3ccc(F)cc23)c1 [Compound 25] | – | – | – | – | – | – | – | – | – | > 100 | 23 | 0.76 | 0.98 | 0.99 | 0.97 | 0.96 | 0.71 | 0.72 | 0.93 | 0.69 | –
